Data reported in patent publication US9902761B2, “Polypeptides, nucleic acids and uses thereof” (AGENCY FOR SCIENCE, TECHNOLOGY AND RESEARCH, priority 2013, dated 2018).

Tests used:
hESCs [1] = assay: qPCR of mesendodermal markers in hESCs; type: cell-based, human
Protocol: (§1) After the indicated time periods, embryoid bodies were harvested and RNA extracted using RNeasy kit ([…]). qPCR reactions were carried out using either Universal FastSlart SYBR Green Mastermix (Roche) or using the Universal Probe Library system (Roche) in tandem with Taqman Fast Mastermix (Invitrogen). Primer sequences can be found in Table E1.

hESCs [2] = assay: directed endoderm differentiation of hESCs, SOX17+ cell count; type: cell-based, human; conditions: 2.5 uM ELA peptide up to day 3, count on day 5
Protocol: Shef4TetR5-shELA and Shef4TetR5-shβ2M cells were cultured in the presence (shELA and shβ2M respectively) or absence (Control) of 20 ng/ml doxycycline for 1 passage (4 days) and dissociated with Accutase. […] 24 hours later, the media was changed to Endo differentiation media 1 [RPMI 1640 (Gibco), 1× B-27 supplement (Invitrogen), 50 ng/ml of Activin A (R&D Systems), 25 ng/ml BMP4 (R&D Systems) and 50 ng/ml bFGF (Invitrogen)] for 3 days. On day 3, the media was changed to Endo differentiation media 2 (RPMI 1640, B27, 50 ng/ml Activin) for 2 more days of culture. Rescue experiments were performed by adding 2.5 uM of ELA peptide to Shef4TetR5-shELA concurrently with doxycycline up to day 3, when the ELA peptide is no longer necessary as judged by downregulation of endogenous ELA.
On day 5, cells were fixed with 4% paraformaldehyde and stained with α SOX17 (AF1924, R&D Systems) and DAPI. For each well, three different randomly selected fields were imaged and the number of nuclei staining positive of SOXI 7 and DAPI were counted using a custom macro in ImageJ. A minimum of two wells per condition was used for each experiment, and a minimum of two independent experiments were performed to generate the results.

hESCs [3] = assay: uptake of FITC-labeled recombinant peptide by hESCs (immunofluorescence); type: cell-based, human
PRAS40 = assay: SILAC-based phosphoproteomic analysis of hESCs pulsed for 10 minutes; type: cell-based, human; conditions: 10 minute pulse, 5 uM
[4] = heart failure, APELIN experiments repeated with ELABELA; conditions: in vivo
From the text: Nature 2012 Aug. […] J Clin Invest. 2013 Nov. 1.

hESCs [5] = assay: survival of hESCs after single-cell dissociation (anoikis); type: cell-based, human; conditions: with or without Y-27632
Protocol: hESCs were dissociated into single cells using Accutase (Stem Cell Technologies) and plated in the presence of 10 μM Y-27632 (ROCK inhibitor) for 12 hours (Watanabe et al., 2007).

CXCR4 = CXCR4 (Homo sapiens, UniProt P61073); assay: PathHunter β-Arrestin CXCR4 assay, activation; type: cell-based; conditions: β-Arrestin recruitment
Chain of CXCR4 (P61073 whole entry, the tested form may be a part): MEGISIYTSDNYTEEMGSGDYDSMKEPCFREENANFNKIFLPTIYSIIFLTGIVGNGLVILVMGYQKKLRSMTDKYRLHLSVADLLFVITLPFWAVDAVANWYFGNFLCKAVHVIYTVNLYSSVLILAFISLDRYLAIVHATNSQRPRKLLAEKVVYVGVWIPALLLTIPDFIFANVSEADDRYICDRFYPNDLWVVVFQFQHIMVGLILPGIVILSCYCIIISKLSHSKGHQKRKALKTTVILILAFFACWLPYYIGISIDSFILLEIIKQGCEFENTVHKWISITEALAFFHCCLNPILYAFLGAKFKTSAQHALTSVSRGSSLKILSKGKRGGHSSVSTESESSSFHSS
Protocol: To detect activation of CXCR4 by ELA or SDF-1, recombinant ELA or SDF-1 were added in increasing concentrations for 90-180 minutes to cells stably expressing CXCR4 coupled to a downstream reporter. β-Arrestin recruitment was measured using the PathHunter® β-Arrestin CXCR4 assay (DiscoveRx). Interaction of CXCR4 with Arrestin was detected by Enzyme Fragment Complementation (EFC) between two complementary domains of β-galactosidase (β-Gal), one fused to CXCR4 and the other fused to β-Arrestin. β-Arrestin recruitment to CXCR4 results in complementation of the two domains to generate β-Gal activity. % Ac ? vity=100%×(mean RLU of test sample−mean RLU of vehicle control)/(mean MAX control ligand−mean RLU of vehicle control). To detect antagonism of SDF-1 by ELA, the assay was run in antagonist mode by measuring the EC50 of ELA in the presence of SDF-1 at EC80 concentration. To detect synergism between ELA and SDF-1, the assay was run in positive allosteric mode by measuring the EC50 of ELA in the presence of SDF-1 at EC20 concentration.

[6] = artherosclerosis, APELIN experiments repeated with ELABELA; type: in vivo
From the text: J Clin Invest 2008; 118:3343-54.
The experiments described in the above publication are repeated, with the replacement of APELIN with ELABELA.

hESCs [7] = assay: embryoid body differentiation of ELA-treated hESCs (qPCR); type: cell-based, human
Protocol: Embryoid body differentiation was performed by plating 1 million cells per well of an Aggrewell 400 plate in Aggrewell Medium (Stem Cell Technologies) followed by harvesting and replating into low-adhesion plates (Corning).
as §1

[8] = erectile dysfunction, APELIN experiments repeated with ELABELA; conditions: in vivo
From the text: J Sex Med. 2013 Apr. 11. doi: 10.11 l/jsm.12158.

hESCs [9] = assay: stress-induced apoptosis of hESCs by ActinomycinD; type: cell-based, human
HIV-1 NL43 = assay: HIV inhibition assay in P4C5 HeLa cells (β-gal activity); type: cell-based; conditions: CXCR4-tropic strain
PI3K/AKT pathway = assay: signaling pathway assay in starved hESCs pulsed with peptide (SDS-PAGE, western); type: cell-based, human
Protocol: To assay the signaling pathway activated by ELA, hESCs were dissociated and plated in mTSER1 for 48 hours, followed by a 2-hour starvation in DMEM/F12. Synthetically produced ELA or ELA^RR>GG peptides, dialyzed against PBS to remove any residual synthesis buffers, were added at a final concentration of 5 uM (or as indicate(D) for the indicated period of time. Where applicable, PI3K inhibitors LY294002 (5 uM) and Wortmannin (1 uM) were added 30 minutes before pulsing with ELA peptides. Cells were lysed with PhosphoSafe™ (Millipore) for SDS-PAGE.

[10] = hypertension, APELIN experiments repeated with ELABELA; conditions: in vivo
From the text: Regulatory Peptides. 2001; 99(2-3):87-92. • Cheng X, Cheng X S, Pang C C. […] European Journal of Pharmacology. […] Journal of the American College of Cardiology. 2008; 52(11):908-913.

hESCs [11] = assay: FACS of stem cell surface markers SSEA3 and TRA-1-60 in hESCs; type: cell-based, human

Q: Which results are given for QRPVNLTMRRKLRKHNCLQRRCMPLHSRVPFP [ELA]?
A: expression of mesendodermal genes GATA6, GATA4, FOXA2, EOMES and BRA (hESCs [1]): consistently upregulated; rescue of SOX17+ endoderm differentiation of shELA hESCs (hESCs [2]): entirely rescued; uptake by hESCs (hESCs [3]): rapidly up-taken by hESCs; phosphopeptide LNpTSDFQK derived from PRAS40 (PRAS40): Among the top phosphopeptides activated by ELA; protection against heart failure [4]: able to provide protection against heart failure; survival following dissociation (anoikis) (hESCs [5]): able to increase survival following dissociation; activation of CXCR4 (CXCR4): cannot activate CXCR4; protection against artherosclerosis ([6]; Ang II): can protect against artherosclerosis; abdominal aortic aneurysm formation and rupture ([6]; in vivo): inhibit abdominal aortic aneurysm formation and rupture; lineage bias during embryoid body differentiation (hESCs [7]): not biased towards mesoderm or endoderm lineages; erectile function [8]: significant restoration of erectile function; levels of MCL-1 (hESCs [9]): rescued with exogenous ELA; levels of P53 protein following exposure to stress (hESCs [9]): no apparent effect; BAX localisation (hESCs [9]; mitochondria versus cytoplasm): remained primarily in the cytoplasm; inhibition of infection with HIV-1 NL43 (HIV-1 NL43): inhibits infection; concentration at which ELA inhibits HIV (HIV-1 NL43; HeLa cells, B-Gal activity after 36-48 hrs of infection): 10 to 40 µM; activation of ERK and SMAD2 (PI3K/AKT pathway): little to no activation of ERK and SMAD2; activation of PI3K/AKT and mTORC1 pathway (p70S6K phosphorylation) (PI3K/AKT pathway): activates the PI3K/AKT pathway and subsequently the mTORC1 pathway; phosphorylation of AKT at serine 473 and PRAS40 at threonine 246 (PI3K/AKT pathway; 5 uM peptide after 2-hour starvation): sufficient to trigger the immediated phosphorylation of AKT at serine 473; blood pressure [10]: causes a reduction in blood pressure; levels of cell surface markers SSEA3 and TRA-1-60 (hESCs [11]): unchanged levels
